Assay results as given in ChEMBL document CHEMBL5500424, “New Strategies for Responding to SARS-CoV-2: The Present and Future of Dual-Target Drugs” (J Med Chem, 2024).

Legend:
SARS-CoV-2 [1] = assay: Antiviral activity against SARS CoV-2 USA-WA1/2020 infected in African green monkey Vero E6 cells assessed as reduction in viral plaque formation incubated for 3 days by plaque reduction neutralization assay; assay type: functional, organism-based; details: Severe acute respiratory syndrome coronavirus 2, USA-WA1/2020, Vero C1008, 72 h
[2] = target: T1, Replicase polyprotein 1ab (Severe acute respiratory syndrome coronavirus 2, UniProt P0DTD1); assay: Inhibition of recombinant SARS-CoV-2 PLpro expressed in Escherichia coli BL21 (DE3) using Arg-Leu-Arg-Gly-Gly-AMC as substrate preincubated for 5 mins followed by substrate addition measured after 6 mins by fluorescence based assay
SARS-CoV-2 [3] = assay: Antiviral activity against SARS-CoV-2 infected in African green monkey Vero E6 cells assessed as inhibition of virus growth; assay type: functional, organism-based; details: Severe acute respiratory syndrome coronavirus 2, Vero C1008
[4] = target: T1, Replicase polyprotein 1ab; assay: Inhibition of SARS-CoV-2 main protease by FRET assay
[5] = target: T1, Replicase polyprotein 1ab; assay: Inhibition of C-terminal His-tagged SARS-CoV-2 PLpro BetaCoV/Wuhan/WIV04/2019 expressed in Escherichia coli BL21(DE3) using ISG-AMC substrate incubated for 3 hrs by FRET analysis
[6] = target: T1, Replicase polyprotein 1ab; assay: Inhibition of recombinant SARS-CoV-2 Main protease by FRET analysis
SARS-CoV-2 [7] = assay: microbe, parasite or virus in culture; details: Severe acute respiratory syndrome coronavirus 2, Vero, 24 h
Furin = Furin (Homo sapiens, UniProt P09958); assay: Inhibition of furin (unknown origin)
Chain of Furin (P09958 whole entry): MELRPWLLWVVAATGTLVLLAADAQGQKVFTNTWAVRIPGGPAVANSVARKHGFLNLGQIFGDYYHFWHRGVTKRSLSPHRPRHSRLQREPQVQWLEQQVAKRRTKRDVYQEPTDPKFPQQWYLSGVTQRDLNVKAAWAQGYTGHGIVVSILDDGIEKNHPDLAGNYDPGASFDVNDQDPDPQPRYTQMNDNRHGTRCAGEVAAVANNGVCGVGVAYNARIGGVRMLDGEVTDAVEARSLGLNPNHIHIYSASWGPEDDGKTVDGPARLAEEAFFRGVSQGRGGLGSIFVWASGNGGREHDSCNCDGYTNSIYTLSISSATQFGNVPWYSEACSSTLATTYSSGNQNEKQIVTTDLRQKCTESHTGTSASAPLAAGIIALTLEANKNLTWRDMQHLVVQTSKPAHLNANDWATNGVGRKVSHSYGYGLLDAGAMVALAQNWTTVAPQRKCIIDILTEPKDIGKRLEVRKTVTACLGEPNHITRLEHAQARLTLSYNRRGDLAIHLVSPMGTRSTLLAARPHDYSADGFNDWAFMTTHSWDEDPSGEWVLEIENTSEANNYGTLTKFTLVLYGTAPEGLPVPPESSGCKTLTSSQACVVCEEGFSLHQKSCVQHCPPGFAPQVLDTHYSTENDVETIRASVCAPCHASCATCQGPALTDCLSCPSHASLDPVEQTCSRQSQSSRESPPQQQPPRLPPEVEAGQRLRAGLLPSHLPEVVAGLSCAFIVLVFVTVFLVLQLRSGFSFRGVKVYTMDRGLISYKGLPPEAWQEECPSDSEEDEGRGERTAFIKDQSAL

[8] = Inhibition of N-terminal 6His-tagged SARS-CoV nsp14 N7-methyltransferase activity expressed in Escherichia coli using GpppAC4 synthetic RNA and [3H]-SAM as substrate incubated for 30 mins in presence of SAM by Liquid scintillation analysis; design: species or system Severe acute respiratory syndrome-related coronavirus
[9] = Inhibition of SARS-CoV-2 nsp16 (1 to 298 residues) expressed in Escherichia coli BL21(DE3)RIL cells using RNA and [3H]SAM as substrate incubated for 1 hrs by SPA-based assay; design: species or system Severe acute respiratory syndrome coronavirus 2

## CCCCCCCCCCCCCCCc1cccc(O)c1C(=O)O [ANACARDIC ACID]
SARS-CoV-2 [1]
  EC50: 9000 nM

## CC(C)[C@H](NC(=O)[C@H](CCCNC(=N)N)NC(=O)N[C@@H](Cc1ccccc1)C(=O)O)C(=O)N[C@H](C=O)CCCNC(=N)N [ANTIPAIN]
[2]
  IC50: 3 nM
SARS-CoV-2 [3]
  EC50: 640 nM

## CCCCCC/C=C\CCCCCCCc1cccc(O)c1C(=O)O [GINGKOLIC ACID]
SARS-CoV-2 [1]
  EC50: 8300 nM

## CCOC(=O)/C=C/[C@H](C[C@@H]1CCNC1=O)NC(=O)[C@H](Cc1ccccc1)NC(=O)[C@@H](Cc1ccc(F)cc1)NC(=O)OC(C)(C)C
[4]
  IC50: 1800 nM
[5]
  IC50: 60 nM

## O=C(OC[C@H]1O[C@@H](OC(=O)c2cc(O)c(O)c(OC(=O)c3cc(O)c(O)c(O)c3)c2)[C@H](OC(=O)c2cc(O)c(O)c(OC(=O)c3cc(O)c(O)c(O)c3)c2)[C@@H](OC(=O)c2cc(O)c(O)c(OC(=O)c3cc(O)c(O)c(O)c3)c2)[C@@H]1OC(=O)c1cc(O)c(O)c(OC(=O)c2cc(O)c(O)c(O)c2)c1)c1cc(O)c(O)c(OC(=O)c2cc(O)c(O)c(O)c2)c1 [TANNIC ACID]
[6]
  IC50: 13200 nM

## N=C(N)Nc1ccc(C(=O)Oc2ccc3cc(C(=N)N)ccc3c2)cc1 [NAFAMOSTAT]
SARS-CoV-2 [7]
  EC50: 10 nM

## CCOC(=O)/C=C/[C@H](C[C@@H]1CCNC1=O)NC(=O)[C@H](Cc1ccccc1)NC(=O)[C@H](N)Cc1ccccc1
[5]
  IC50: 60 nM

## N=C(N)c1ccc(/N=N/Nc2ccc(C(=N)N)cc2)cc1 [DIMINAZENE]
Furin
  IC50: 580 nM

## N#Cc1cn([C@@H]2O[C@H](CSCC[C@H](N)C(=O)O)[C@@H](O)[C@H]2O)c2ncnc(N)c12
[8]
  IC50: 70 nM
[9]
  IC50: 1200 nM

## Nc1ncnc2c1ncn2[C@@H]1O[C@H](C[C@@H](CO)CC[C@H](N)C(=O)O)[C@@H](O)[C@H]1O
[8]
  IC50: 190 nM
[9]
  IC50: 3400 nM
